Experimental data published in patent EP4755891A1, “ARF1 INHIBITOR AND USE THEREOF” (AOBIO PHARMACEUTICAL CO., LTD., priority 2023, dated 2025).
“Also recorded” adds a separate entry of the source.

Experiments:
CT26 colon cancer [1] = assay: Inhibition of CT26 colon cancer in BALB/c mice (Example 47, 5 mg/kg); assay type: in vivo; conditions: gavaged daily, two consecutive weeks, FIG. 9 and FIG. 10
Experimental: In this example, the inhibitory effects of Compounds 9, 11-3, 25, 26, 27, and DU102 on colon cancer growth were tested.
Murine CT26 cells were inoculated into the left abdomen of 6-week-old male mice at a dose of 5×10^5 cells per mouse. Approximately 7 days later, the mice were randomly divided into two groups: the control group or the compound treatment group. They were gavaged daily with either the vehicle control (ddH2O or 5% DMSO in corn oil) or 5 mg/kg of Compounds 9, 11-3, 25, 26, or 27 (dissolved in the corresponding vehicle) for two consecutive weeks. Tumor diameters were measured every 2-3 days using a digital caliper (ULINE, Cat^# H-7352), and the tumor volume was calculated using the formula ½ × longitudinal diameter (length) × maximum transverse diameter (width). When the maximum tumor volume reached 2000 mm^3, the mice were euthanized.

Arf1 = biological target: T1, Arf1 (Homo sapiens, UniProt P84077); assay: Inhibition test of Arf1 activation (Active Arf1 pull-down and detection kit, Western blot); assay type: cell-based; conditions: lysate of liver cancer Huh-7 cells; GTP-bound Arf1; FIG. 3
T1 construct: endogenous in cells; host or cells: Huh-7 liver cancer cells (lysate)
Experimental: In this example, the inhibitory ability of Compounds 3 and 9 synthesized in the above preparation examples on Arf1 activation was tested. The Pierce Active Arf1 Pull-Down and Detection Kit (Thermo Scientific, Cat#16121) was used with the lysate of liver cancer Huh-7 cells to detect the activated Arf1. It is a complete kit that selectively enriches and detects GTP-bound Arf1 GTPase through specific protein interactions with the GGA3 protein-binding domain.

Mouse neuroblastoma N2A = assay: Test for Golgi morphology abnormalities (GM130 immunofluorescence); assay type: cell-based; conditions: N2A cells; FIG. 4
Experimental: GCA, a known Arf1 inhibitor, was used as a positive control.
Mouse neuroblastoma N2A (N2a, ATCC®CCL-131™) was cultured, treated, and subjected to immunofluorescence staining as previously reported (Wang et al., 2021).

CCL5 = assay: Upregulation of chemokine CCL5 expression (quantitative RT-PCR); assay type: cell-based, Murine; conditions: CT26 cells; FIG. 5
Experimental: In this example, the upregulation of chemokine CCL5 expression induced by the treatment of Compounds 3 and 9 synthesized in the above preparation examples was tested. Quantitative RT-PCR was used to measure the expression level of chemokine CCL5 in CT26 cells treated with DMSO, Compound 3, or Compound 9.

NF-κB signaling pathway = assay: Activation of NF-κB signaling pathway (phosphorylated P65, Western blot); assay type: cell-based, Murine; conditions: CT26 cells; FIG. 6
Experimental: In this example, Compounds 3 and 9 synthesized in the above preparation examples were tested for their ability to activate the NF-κB signaling pathway, as indicated by an increase of phosphorylated P65. GCA, a known Arf1 inhibitor, was used as a positive control.
In CT26 cells treated with DMSO, GCA, Compound 3, or Compound 9, the relevant protein levels were evaluated by Western blot analysis as previously described (Wang et al., 2020).

[2] = system: Drosophila orthotopic tumors; assay: Inhibition of orthotopic tumor growth in Drosophila; assay type: in vivo; conditions: 5 µM in food, 4 days; Ras^V12-PMML clones; FIG. 7
Experimental: In this example, the inhibitory effects of Compounds 3 and 9 synthesized in the above preparation examples on the growth of Drosophila orthotopic tumors were tested. As previously described, renal stem cell tumor clusters were induced by expressing Ras in Drosophila renal stem cell (Ras^V12-PMML) clones (Singh et al., 2016). The Drosophila carrying Ras^V12-PMML clones were cultured with normal food at room temperature for 4 days to allow tumor growth. They were then switched to food containing the indicated drugs for an additional 4 days, followed by feeding the Drosophila carrying Ras^V12-PMML with normal food containing DMSO or 5 µM Compound 3 or Compound 9. In the indicated groups, the number of esg>GFP + tumor cells per 5×10^3 µm^2 area was quantified to characterize tumor size.

CT26 colon cancer [3] = assay: Inhibition of CT26 colon cancer in BALB/c mice (Example 48, 10 mg/kg); assay type: in vivo; conditions: gavaged daily, two consecutive weeks, FIG. 11
Experimental: In this example, the inhibitory effects of Compounds 28, 30, 31, 33, 34, and DU102 synthesized in the above preparation examples on the growth of colon cancer were tested.
Murine CT26 cells were inoculated into the left abdomen of 6-week-old male mice at a dose of 5×10^5 cells per mouse. Approximately 7 days later, the mice were randomly divided into two groups: the control group or the compound treatment group. The mice were gavaged daily with either the vehicle control (ddH2O or 5% DMSO in corn oil) or 10 mg/kg of Compounds 28, 30, 31, 33, 34, and DU102 (dissolved in the corresponding vehicle) for two consecutive weeks. Tumor diameters were measured every 2-3 days using a digital caliper (ULINE, Cat^# H-7352), and the tumor volume was calculated using the formula ½ × longitudinal diameter (length) × maximum transverse diameter (width). When the maximum tumor volume reached 3000 mm^3, the mice were euthanized.

T1 sequence (P84077 whole entry): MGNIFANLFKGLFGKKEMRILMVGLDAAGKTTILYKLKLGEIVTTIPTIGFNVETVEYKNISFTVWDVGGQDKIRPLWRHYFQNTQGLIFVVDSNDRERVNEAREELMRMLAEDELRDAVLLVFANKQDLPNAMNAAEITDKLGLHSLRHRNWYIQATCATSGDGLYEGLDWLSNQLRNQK

## Cn1cnc2cc(Nc3ncnc4sc5c(c34)CCN(C(=O)c3ccc(Cl)s3)C5)ccc21 [Compound 26, (5-Chlorothiophen-2-yl)(4-((1-methyl-1H-benzo[d]imidazol-5-yl)amino)-5,8-dihydropyrido[4',3':4,5]thieno[2,3-d]pyrimidin-7(6H)-yl)methanone]
CT26 colon cancer [1]
  inhibition of CT26 colon cancer: effectively inhibit CT26 colon cancer

## N-(1H-Indol-5-yl)-methylthieno[2,3-d]pyrimidin-4-amine [Compound 3]
Arf1
  inhibition of Arf1 activation: effectively inhibit the activation of Arf1; also recorded: effective inhibitors
Mouse neuroblastoma N2A
  Golgi morphology (Golgi apparatus defects, distribution of Golgi marker GM130): induce Golgi apparatus defects; also recorded: effectively induce morphological changes in the Golgi apparatus
CCL5
  expression of the chemokine CCL5: effectively promote the expression
NF-κB signaling pathway
  phosphorylation level of P65: increase the phosphorylation level of P65
[2]
  orthotopic tumor growth in Drosophila: effectively inhibit orthotopic tumor growth

## Cc1nc2cc(/C=N/Nc3ncnc4sc5c(c34)CCCCCC5)ccc2[nH]1 [Compound 33, (E)-4-(2-((2-Methyl-1H-benzo[d]imidazol-5-yl)methylene)hydrazinyl)-5,6,7,8,9,10-hexahydrocycloocta[4,5]thieno[2,3-d]pyrimidine]
CT26 colon cancer [3]
  inhibition of CT26 colon cancer: effectively inhibit CT26 colon cancer

## CC(=O)N1CCc2c(sc3ncnc(Nc4ccc5nc(C)[nH]c5c4)c23)C1 [Compound 30, 1-(4-((2-Methyl-1H-benzo[d]imidazol-6-yl)amino)-5,8-dihydropyrido[4',3':4,5]thieno[2,3-d]pyrimidin-7(6H)-yl)ethanone]
CT26 colon cancer [3]
  inhibition of CT26 colon cancer: effectively inhibit CT26 colon cancer

## Cc1nc2cc(Nc3ncnc4sc5c(c34)CCCCCC5)ccc2[nH]1 [Compound 31, N-(2-Methyl-1H-benzo[d]imidazol-5-yl)-5,6,7,8,9,10-hexahydrocycloocta[4,5]thieno[2,3-d]pyrimidin-4-amine]
CT26 colon cancer [3]
  inhibition of CT26 colon cancer: effectively inhibit CT26 colon cancer

## Cc1nc2ccc(Nc3ncnc4sc5c(c34)CCNC5)cc2[nH]1 [Compound 28, N-(2-Methyl-1H-benzo[d]imidazol-6-yl)-5,6,7,8-tetrahydropyrido[4',3':4,5]thieno[2,3-d]pyrimidin-4-amine]
CT26 colon cancer [3]
  inhibition of CT26 colon cancer: effectively inhibit CT26 colon cancer

## Cc1nc2ccc(Nc3ncnc4scc(C)c34)cc2[nH]1 [Compound 25, 5-Methyl-N-(2-methyl-1H-benzo[d]imidazol-6-yl)thieno[2,3-d]pyrimidin-4-amine]
CT26 colon cancer [1]
  inhibition of CT26 colon cancer: effectively inhibit CT26 colon cancer

## Fc1cc(F)c2c(c1)[C@H]1C=CC[C@H]1C(c1cccnc1)N2 (stereo partly shown) [GCA, reference compound]
Mouse neuroblastoma N2A
  Golgi morphology (Golgi apparatus defects, distribution of Golgi marker GM130): effectively induce morphological changes in the Golgi apparatus
NF-κB signaling pathway
  phosphorylation level of P65: increase the phosphorylation level of P65
